Measurements: patent US20080249042A1, “All-Trans-Retinol: All-Trans-13,14-Dihydroretinol Saturase and Methods of Its Use” (UNIVERSITY OF WASHINGTON, priority 2004, published 2008)

How the values were obtained:
RALDH1 = biological target: T1, RALDH1 (Mus musculus, UniProt P24549); experiment: RALDH oxidation assay, transfected HEK-293S homogenate; type: biochemical; settings: cell homogenate with NAD, NADP, ATP
T1 construct: expressed in transfected cells; host or cells: GnTI-negative HEK-293S, transient; cell homogenate
T1 sequence (P24549 1-501): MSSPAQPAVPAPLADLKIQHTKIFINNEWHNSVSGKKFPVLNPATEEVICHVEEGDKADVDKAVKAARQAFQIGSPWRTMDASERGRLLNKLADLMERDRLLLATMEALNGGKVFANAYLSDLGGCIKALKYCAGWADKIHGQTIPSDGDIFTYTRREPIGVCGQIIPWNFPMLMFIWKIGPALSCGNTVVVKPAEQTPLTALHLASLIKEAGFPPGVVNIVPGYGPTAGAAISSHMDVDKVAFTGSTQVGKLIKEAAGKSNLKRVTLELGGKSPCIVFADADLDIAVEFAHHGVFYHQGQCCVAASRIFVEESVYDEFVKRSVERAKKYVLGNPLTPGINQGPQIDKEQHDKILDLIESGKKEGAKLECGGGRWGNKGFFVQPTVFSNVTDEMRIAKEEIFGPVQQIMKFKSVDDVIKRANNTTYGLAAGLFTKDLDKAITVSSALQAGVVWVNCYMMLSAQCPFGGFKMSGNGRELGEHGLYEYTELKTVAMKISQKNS
Experimental: (§1) RALDH Oxidation Assay. N-Acetylglucosaminyltransferase I-negative HEK-293S cells, obtained from Dr. G. Khorana (Massachusetts Institute of Technology, Boston) were cultured in Dulbecco's modified Eagle's medium, 10% fetal calf serum and maintained at 37° C., 5% CO2, and 100% humidity. Reeves, et al. Proc. Natl. Acad. Sci. U.S.A. 99:13419-13424, 2002. For RALDH enzyme assays, cells were transiently transfected with RALDH1, -2, -3, or -4 expression constructs using Lipofectamine 2000 (Invitrogen) according to the manufacturer's protocol. After 48 h post-transfection, the cells were collected by scraping and were centrifuged. The cell pellet was washed in 137 mM NaCl, 2.7 mM KCl, and 10 mM phosphate (pH 7.4), resuspended in 50 mM Tris (pH 8.0) containing 250 mM sucrose, and homogenized with the aid of a Dounce homogenizer. Cofactors were added to a final concentration of 5 mM NAD, 5 mM NADP, and 1 mM ATP. An aliquot of the cell lysate was boiled for 10 min at 95° C. to provide the control for the nonenzymatic reaction. Substrates in the form of all-trans-RAL or a mixture of isomers of DRAL were added to the cell lysates at a final concentration of 60 μM. The reactions were allowed to proceed for 2 h at 37° C. with shaking and were stopped by the addition of 2 volumes of CH3CN. […] After each run, the column was washed with mixture B (60% tert-butylmethyl ether, 40% methanol) for 10 min at 1.6 ml/min, followed by re-equilibration in phase A. The elution of RA and DRA isomers was monitored at 340 and 290 nm, respectively. The peaks were identified based on their spectra and coelution with standards. The cell lysate was examined for expression of RALDH1-4 by SDS-PAGE and immunoblotting of the V5 epitope-tagged recombinant protein using an anti-V5 epitope monoclonal antibody (Invitrogen).

RALDH2 = biological target: T2, RALDH2 (Mus musculus, UniProt Q62148); experiment: as above; type: biochemical; settings: cell homogenate with NAD, NADP, ATP
T2 construct: The full-length cDNA of RALDH2 (MGC:76772, IMAGE: 30471325), RALDH4 (MGC:46977, IMAGE:4223059), and CYP26A1 (MGC:13860, IMAGE:4210893) mRNA was obtained; expressed in transfected cells; host or cells: GnTI-negative HEK-293S, transient; cell homogenate
T2 sequence (Q62148 1-518): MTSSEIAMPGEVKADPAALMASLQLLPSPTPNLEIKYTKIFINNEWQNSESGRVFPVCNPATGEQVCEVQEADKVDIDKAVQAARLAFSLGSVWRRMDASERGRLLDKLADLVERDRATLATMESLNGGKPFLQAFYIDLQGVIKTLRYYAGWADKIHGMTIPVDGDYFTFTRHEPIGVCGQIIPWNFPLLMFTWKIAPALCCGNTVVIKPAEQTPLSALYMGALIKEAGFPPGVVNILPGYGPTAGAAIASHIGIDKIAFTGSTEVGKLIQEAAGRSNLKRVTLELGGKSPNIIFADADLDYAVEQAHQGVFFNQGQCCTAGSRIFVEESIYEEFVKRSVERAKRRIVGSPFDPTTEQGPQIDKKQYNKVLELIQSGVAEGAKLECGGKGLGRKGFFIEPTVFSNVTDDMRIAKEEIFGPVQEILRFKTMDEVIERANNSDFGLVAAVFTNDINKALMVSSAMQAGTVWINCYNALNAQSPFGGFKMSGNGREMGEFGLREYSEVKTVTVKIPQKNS
Experimental: as §1

RALDH3 = biological target: T3, RALDH3 (Mus musculus, UniProt Q9JHW9); experiment: as above; type: biochemical; settings: cell homogenate with NAD, NADP, ATP
T3 construct: expressed in transfected cells; host or cells: GnTI-negative HEK-293S, transient; cell homogenate
T3 sequence (Q9JHW9 1-512): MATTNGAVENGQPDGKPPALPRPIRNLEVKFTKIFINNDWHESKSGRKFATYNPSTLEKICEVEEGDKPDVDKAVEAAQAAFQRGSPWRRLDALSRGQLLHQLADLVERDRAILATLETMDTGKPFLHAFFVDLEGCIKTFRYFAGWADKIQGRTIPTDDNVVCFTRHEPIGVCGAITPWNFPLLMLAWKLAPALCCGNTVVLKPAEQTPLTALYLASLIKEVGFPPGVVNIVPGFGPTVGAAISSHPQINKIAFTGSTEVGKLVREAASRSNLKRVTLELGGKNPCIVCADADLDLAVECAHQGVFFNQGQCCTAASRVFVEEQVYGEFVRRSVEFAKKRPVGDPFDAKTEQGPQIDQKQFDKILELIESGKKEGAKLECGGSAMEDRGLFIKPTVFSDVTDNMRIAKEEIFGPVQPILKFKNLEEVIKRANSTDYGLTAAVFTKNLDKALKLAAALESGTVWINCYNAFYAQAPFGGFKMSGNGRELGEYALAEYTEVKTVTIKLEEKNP
Experimental: as §1

RALDH4 = biological target: T4, RALDH4 (Mus musculus, UniProt Q8BH00); experiment: as above; type: biochemical; settings: cell homogenate with NAD, NADP, ATP
T4 construct: The full-length cDNA of RALDH2 (MGC:76772, IMAGE: 30471325), RALDH4 (MGC:46977, IMAGE:4223059), and CYP26A1 (MGC:13860, IMAGE:4210893) mRNA was obtained; expressed in transfected cells; host or cells: GnTI-negative HEK-293S, transient; cell homogenate
T4 sequence (Q8BH00 1-487): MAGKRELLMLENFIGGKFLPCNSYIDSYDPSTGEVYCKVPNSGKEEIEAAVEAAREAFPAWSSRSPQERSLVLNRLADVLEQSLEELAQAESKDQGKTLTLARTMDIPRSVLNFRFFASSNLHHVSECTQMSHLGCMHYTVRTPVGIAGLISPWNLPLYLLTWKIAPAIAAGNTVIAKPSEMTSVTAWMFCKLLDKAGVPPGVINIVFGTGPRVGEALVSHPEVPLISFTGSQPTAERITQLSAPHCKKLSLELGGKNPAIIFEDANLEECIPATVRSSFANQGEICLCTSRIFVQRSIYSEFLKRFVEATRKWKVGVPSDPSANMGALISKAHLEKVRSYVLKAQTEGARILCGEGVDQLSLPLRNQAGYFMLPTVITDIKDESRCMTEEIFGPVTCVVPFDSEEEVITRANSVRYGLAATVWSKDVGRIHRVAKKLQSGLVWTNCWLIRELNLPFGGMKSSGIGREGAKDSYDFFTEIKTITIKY
Experimental: as §1

mouse RALDH2 = biological target: T5, mouse RALDH2 (Mus musculus, UniProt Q62148); settings: cited from earlier work
T5 sequence (Q62148 1-518): T2 sequence (Q62148 1-518)

mouse RALDH1 = biological target: T6, mouse RALDH1 (Mus musculus, UniProt P24549); settings: cited from earlier work
T6 sequence (P24549 1-501): T1 sequence (P24549 1-501)

| Compound | Oxidation to the acid by RALDH1 (RALDH1) | Oxidation to the acid by RALDH2 (RALDH2) | Oxidation to the acid by RALDH3 (RALDH3) | Oxidation to the acid by RALDH4 (RALDH4) | Km (mouse RALDH2) [nM] | Km (mouse RALDH1) [µM] |
| --- | --- | --- | --- | --- | --- | --- |
| CC(C=CC1=C(C)CCCC1(C)C)=CC=CC(C)CC=O (stereo not drawn) [all-trans-DRAL, 13,14-dihydroretinaldehyde] | less efficient | efficiently converted | efficiently converted | less efficient | – | – |
| CC1=C(/C=C/C(C)=C/C=C/C(C)=C/C=O)C(C)(C)CCC1 [all-trans-RAL, all-trans-retinal, reference compound] | less efficient | efficiently converted | efficiently converted | less efficient | 660 | 11.6 |
